Tested on: hypertriglyceridemic patients with cardiovascular disease or at high risk for cardiovascular disease
Assay: REDUCE-IT: electrocardiograms, vital signs (blood pressure, pulse), weight and waist circumference
Assay type: in vivo, human
Description: Blood pressure was measured using a standardized process: • Patient sat for ≥5 minutes with feet flat on the floor and measurement arm supported so that the midpoint of the manometer cuff was at heart level; and • Used a mercury sphygmomanometer or automatic blood pressure device with an appropriately sized cuff with the bladder centered over the brachial artery.
Blood pressure was recorded to the nearest 2 mmHg mark on the manometer or to the nearest whole number on an automatic device. A blood pressure reading was repeated 1 to 2 minutes later, and the second reading recorded to the nearest 2 mmHg mark.
Height, Weight and Body Mass Index: Height and weight were measured. Measurement of weight was performed with the patient dressed in indoor clothing, with shoes removed, and bladder empty.
Waist Circumference: Waist circumference was measured with a tape measure, as follows: Start at the top of the hip bone then bring the tape measure all the way around—level with the navel. Make sure the tape measure is snug, but without compressing the skin, and that it is parallel with the floor. Patients should not have held their breath while measuring waist circumference.
12-Lead Electrocardiogram (ECG): ECGs (standard 12-lead) were obtained annually. Site personnel made every attempt to perform a patient's ECG using the same equipment at each visit. ECGs were reviewed by the site for the detection of silent MI. Silent MIs were sent for event adjudication. All post-randomization ECGs (protocol-specified and other) were sent to the CEC for evaluation of silent MI. The 12-lead ECG parameters included Heart Rate (bpm), PR Interval (msec), QRS Interval (msec), QT Interval (msec), and QTc Interval (msec) were measured, and Overall Interpretation and Silent MI (Yes/No) were summarized for all patients at Screening (Visit 1), Randomization visit (Visit 2; Day 0) and all other follow-up visits including the last visit of the study.
A treatment-emergent PCS high value at any time was defined as a change from a value less than or equal to the defined PCS value at baseline to a PCS high value at any post-baseline measurement. A treatment-emergent PCS low value at any time was defined as a change from a value greater than or equal to the lower PCS value at baseline to a PCS low value at any post-baseline measurement.
As an additional exploratory analysis, the relationship between post-baseline biomarker values and treatment effects with the primary and key secondary endpoints were assessed by adding biomarker values (for example, at 4 months, or at 1 year, etc.) as time-dependent covariates in the Cox proportional hazards model. Diagnostic plots for the proportional hazard's assumption was evaluated. Weight was measured at the screening visit and at all follow-up visits, including the last visit of the study. Waist circumference was measured at the randomization visit (Visit 2; Day 0), Visit 5 (Day 720) and the last visit of the study. Descriptive statistics were presented by visit and treatment group for baseline, post-treatment change from baseline, and the percent change from baseline. Analysis methods for repeated measurements were used to compare percent change from baseline between treatments.

[1] = Baseline (Visit 2), Safety population
[2] = Visit 9 (n = 8), Safety population
[3] = any post-baseline visit, 3683 patients with data
[4] = any post-baseline visit, 3823 patients with data
[5] = any post-baseline visit, 3834 patients with data
[6] = any post-baseline visit, 3983 patients with data

CC/C=C\C/C=C\C/C=C\C/C=C\C/C=C\CCCC(=O)OCC [AMR101, eicosapentaenoic acid ethyl ester]
Diastolic Blood Pressure, mean baseline value [1]: 78.1 mmHg
ECG Heart Rate, mean baseline value [1]: 66.6 beats/minute
Heart Rate (vital sign), mean baseline value [1]: 68.1 beats/minute
PR Interval, mean baseline value [1]: 172.2 ms
QTc Interval, mean baseline value [1]: 422.4 ms
Systolic Blood Pressure, mean baseline value [1]: 132.6 mmHg
Diastolic Blood Pressure, mean change from baseline (Last Visit, Safety population): −0.7 mmHg
ECG Heart Rate, mean change from baseline (Last Visit, Safety population): 2.1 beats/minute
Heart Rate (vital sign), mean change from baseline (Last Visit, Safety population): 1.7 beats/minute
PR Interval, mean change from baseline (Last Visit, Safety population): 1.7 ms
QTc Interval, mean change from baseline (Last Visit, Safety population): 5.0 ms
Systolic Blood Pressure, mean change from baseline (Last Visit, Safety population): 0.9 mmHg
ECG TEAE - ECG signs of myocardial ischemia, % patients (Safety population, N = 4089): (0.0) %
ECG TEAE - ECG signs of myocardial ischemia, n patients (Safety population, N = 4089): 2
ECG TEAE - Electrocardiogram PR prolongation, % patients (Safety population, N = 4089): (0.0) %
ECG TEAE - Electrocardiogram PR prolongation, n patients (Safety population, N = 4089): 0
ECG TEAE - Electrocardiogram Q wave abnormal, % patients (Safety population, N = 4089): (0.0) %
ECG TEAE - Electrocardiogram Q wave abnormal, n patients (Safety population, N = 4089): 1
ECG TEAE - Electrocardiogram QRS complex abnormal, % patients (Safety population, N = 4089): (0.0) %
ECG TEAE - Electrocardiogram QRS complex abnormal, n patients (Safety population, N = 4089): 2
ECG TEAE - Electrocardiogram QT prolonged, % patients (Safety population, N = 4089): (0.2) %
ECG TEAE - Electrocardiogram QT prolonged, n patients (Safety population, N = 4089): 10
ECG TEAE - Electrocardiogram ST segment abnormal, % patients (Safety population, N = 4089): (0.1) %
ECG TEAE - Electrocardiogram ST segment abnormal, n patients (Safety population, N = 4089): 6
ECG TEAE - Electrocardiogram ST segment depression, % patients (Safety population, N = 4089): (0.1) %
ECG TEAE - Electrocardiogram ST segment depression, n patients (Safety population, N = 4089): 4
ECG TEAE - Electrocardiogram ST-T change, % patients (Safety population, N = 4089): (0.0) %
ECG TEAE - Electrocardiogram ST-T change, n patients (Safety population, N = 4089): 1
ECG TEAE - Electrocardiogram ST-T segment abnormal, % patients (Safety population, N = 4089): (0.0) %
ECG TEAE - Electrocardiogram ST-T segment abnormal, n patients (Safety population, N = 4089): 2
ECG TEAE - Electrocardiogram T wave abnormal, % patients (Safety population, N = 4089): (0.1) %
ECG TEAE - Electrocardiogram T wave abnormal, n patients (Safety population, N = 4089): 6
ECG TEAE - Electrocardiogram T wave amplitude decreased, % patients (Safety population, N = 4089): (0.0) %
ECG TEAE - Electrocardiogram T wave amplitude decreased, n patients (Safety population, N = 4089): 0
ECG TEAE - Electrocardiogram T wave inversion, % patients (Safety population, N = 4089): (0.2) %
ECG TEAE - Electrocardiogram T wave inversion, n patients (Safety population, N = 4089): 7
ECG TEAE - Electrocardiogram T wave normal, % patients (Safety population, N = 4089): (0.0) %
ECG TEAE - Electrocardiogram T wave normal, n patients (Safety population, N = 4089): 0
ECG TEAE - Electrocardiogram abnormal, % patients (Safety population, N = 4089): (0.2) %
ECG TEAE - Electrocardiogram abnormal, n patients (Safety population, N = 4089): 10
ECG TEAE - Electrocardiogram change, % patients (Safety population, N = 4089): (0.1) %
ECG TEAE - Electrocardiogram change, n patients (Safety population, N = 4089): 3
ECG TEAE - Exercise electrocardiogram abnormal, % patients (Safety population, N = 4089): (0.0) %
ECG TEAE - Exercise electrocardiogram abnormal, n patients (Safety population, N = 4089): 1
Diastolic Blood Pressure, mean change from baseline (Visit 3, Safety population): 0.1 mmHg
Heart Rate (vital sign), mean change from baseline (Visit 3, Safety population): 1.2 beats/minute
Systolic Blood Pressure, mean change from baseline (Visit 3, Safety population): −0.5 mmHg
Diastolic Blood Pressure, mean change from baseline (Visit 4, Safety population): −0.1 mmHg
ECG Heart Rate, mean change from baseline (Visit 4, Safety population): 1.2 beats/minute
Heart Rate (vital sign), mean change from baseline (Visit 4, Safety population): 0.9 beats/minute
PR Interval, mean change from baseline (Visit 4, Safety population): -0.3 ms
QTc Interval, mean change from baseline (Visit 4, Safety population): 1.8 ms
Systolic Blood Pressure, mean change from baseline (Visit 4, Safety population): −0.2 mmHg
Diastolic Blood Pressure, mean change from baseline (Visit 5, Safety population): −0.1 mmHg
ECG Heart Rate, mean change from baseline (Visit 5, Safety population): 1.7 beats/minute
Heart Rate (vital sign), mean change from baseline (Visit 5, Safety population): 1.3 beats/minute
PR Interval, mean change from baseline (Visit 5, Safety population): 0.4 ms
QTc Interval, mean change from baseline (Visit 5, Safety population): 2.8 ms
Systolic Blood Pressure, mean change from baseline (Visit 5, Safety population): 0.5 mmHg
Diastolic Blood Pressure, mean change from baseline (Visit 6, Safety population): −0.4 mmHg
ECG Heart Rate, mean change from baseline (Visit 6, Safety population): 1.6 beats/minute
Heart Rate (vital sign), mean change from baseline (Visit 6, Safety population): 1.4 beats/minute
PR Interval, mean change from baseline (Visit 6, Safety population): 0.8 ms
QTc Interval, mean change from baseline (Visit 6, Safety population): 3.7 ms
Systolic Blood Pressure, mean change from baseline (Visit 6, Safety population): 0.9 mmHg
Diastolic Blood Pressure, mean change from baseline (Visit 7, Safety population): −0.5 mmHg
ECG Heart Rate, mean change from baseline (Visit 7, Safety population): 1.8 beats/minute
Heart Rate (vital sign), mean change from baseline (Visit 7, Safety population): 1.5 beats/minute
PR Interval, mean change from baseline (Visit 7, Safety population): 1.4 ms
QTc Interval, mean change from baseline (Visit 7, Safety population): 5.0 ms
Systolic Blood Pressure, mean change from baseline (Visit 7, Safety population): 0.8 mmHg
Diastolic Blood Pressure, mean change from baseline (Visit 8, Safety population): −1.0 mmHg
ECG Heart Rate, mean change from baseline (Visit 8, Safety population): 1.4 beats/minute
Heart Rate (vital sign), mean change from baseline (Visit 8, Safety population): 0.9 beats/minute
PR Interval, mean change from baseline (Visit 8, Safety population): 2.2 ms
QTc Interval, mean change from baseline (Visit 8, Safety population): 6.6 ms
Systolic Blood Pressure, mean change from baseline (Visit 8, Safety population): 0.4 mmHg
PR Interval, mean change from baseline (Visit 9 (n = 5), Safety population): -21.2 ms
ECG Heart Rate, mean change from baseline (Visit 9 (n = 7), Safety population): 7.6 beats/minute
Diastolic Blood Pressure, mean change from baseline [2]: −2.7 mmHg
Heart Rate (vital sign), mean change from baseline [2]: 2.8 beats/minute
Systolic Blood Pressure, mean change from baseline [2]: −5.4 mmHg
PCS ECG finding: PR Interval <120 msec, % patients [3]: (7.1) %
PCS ECG finding: PR Interval <120 msec, n patients [3]: 261
PCS ECG finding: PR Interval >120 msec and increase >20 msec from baseline, % patients [3]: (24.8) %
PCS ECG finding: PR Interval >120 msec and increase >20 msec from baseline, n patients [3]: 913
PCS ECG finding: QTc Interval >500 msec, % patients [4]: (5.4) %
PCS ECG finding: QTc Interval >500 msec, n patients [4]: 208
PCS ECG finding: QRS Interval >110 msec, % patients [5]: (29.3) %
PCS ECG finding: QRS Interval >110 msec, n patients [5]: 1124
Diastolic Blood Pressure Decrease of ≥10 mmHg, % patients [6]: (39.4) %
Diastolic Blood Pressure Decrease of ≥10 mmHg, n patients [6]: 1569
Diastolic Blood Pressure Increase of ≥10 mmHg, % patients [6]: (36.2) %
Diastolic Blood Pressure Increase of ≥10 mmHg, n patients [6]: 1442
Diastolic Blood Pressure PCS High ≥100 mmHg and increase of ≥10 mmHg, % patients [6]: (4.5) %
Diastolic Blood Pressure PCS High ≥100 mmHg and increase of ≥10 mmHg, n patients [6]: 179
Diastolic Blood Pressure PCS High ≥100 mmHg, % patients [6]: (5.6) %
Diastolic Blood Pressure PCS High ≥100 mmHg, n patients [6]: 223
Diastolic Blood Pressure PCS Low ≤50 mmHg and decrease of ≥10 mmHg, % patients [6]: (0.9) %
Diastolic Blood Pressure PCS Low ≤50 mmHg and decrease of ≥10 mmHg, n patients [6]: 35
Diastolic Blood Pressure PCS Low ≤50 mmHg, % patients [6]: (1.1) %
Diastolic Blood Pressure PCS Low ≤50 mmHg, n patients [6]: 42
Pulse Decrease of ≥15 beats/min, % patients [6]: (14.1) %
Pulse Decrease of ≥15 beats/min, n patients [6]: 562
Pulse Increase of ≥15 beats/min, % patients [6]: (27.4) %
Pulse Increase of ≥15 beats/min, n patients [6]: 1092
Pulse PCS High ≥90 beats/min and increase of ≥15 beats/min, % patients [6]: (9.3) %
Pulse PCS High ≥90 beats/min and increase of ≥15 beats/min, n patients [6]: 370
Pulse PCS High ≥90 beats/min, % patients [6]: (13.8) %
Pulse PCS High ≥90 beats/min, n patients [6]: 551
Pulse PCS Low ≤50 beats/min and decrease of ≥15 beats/min, % patients [6]: (1.7) %
Pulse PCS Low ≤50 beats/min and decrease of ≥15 beats/min, n patients [6]: 68
Pulse PCS Low ≤50 beats/min, % patients [6]: (7.4) %
Pulse PCS Low ≤50 beats/min, n patients [6]: 293
Systolic Blood Pressure Decrease of ≥20 mmHg, % patients [6]: (25.3) %
Systolic Blood Pressure Decrease of ≥20 mmHg, n patients [6]: 1009
Systolic Blood Pressure Increase of ≥20 mmHg, % patients [6]: (29.2) %
Systolic Blood Pressure Increase of ≥20 mmHg, n patients [6]: 1163
Systolic Blood Pressure PCS High ≥160 mmHg and increase of ≥20 mmHg, % patients [6]: (11.3) %
Systolic Blood Pressure PCS High ≥160 mmHg and increase of ≥20 mmHg, n patients [6]: 450
Systolic Blood Pressure PCS High ≥160 mmHg, % patients [6]: (18.0) %
Systolic Blood Pressure PCS High ≥160 mmHg, n patients [6]: 715
Systolic Blood Pressure PCS Low ≤90 mmHg and decrease of ≥20 mmHg, % patients [6]: (0.7) %
Systolic Blood Pressure PCS Low ≤90 mmHg and decrease of ≥20 mmHg, n patients [6]: 27
Systolic Blood Pressure PCS Low ≤90 mmHg, % patients [6]: (1.0) %
Systolic Blood Pressure PCS Low ≤90 mmHg, n patients [6]: 40

From patent US12427134B2, “Methods of reducing the risk of cardiovascular events in a subject with atrial fibrillation and/or atrial flutter” (priority 2019, dated 2025)
